According to patent publication US20160000796A1, “PHARMACEUTICAL COMPOSITION FOR USE IN PREVENTION OR TREATMENT OF CANCER” (priority 2013, published 2016):

Legend:
[1] = system: HTLV-1-infected cell line, MT2; assay: Combination of abacavir and topoisomerase inhibitor, cellular proliferation (MTS), MT2; type: cell-based; conditions: 48 hours, abacavir 10 or 25 μM plus CPT-11 200-400 pM, VP16 100-500 nM or ADR 10-50 nM
Protocol: An HTLV-1-infected cell line, MT2 cell, was used. Abacavir was added at a concentration of 0 μM (DMSO was added instead of abacavir), 10 μM, or 25 μM, and to each of the samples, CPT-11 (generic name: irinotecan) was further added at a concentration of 0 pM, 200 pM, 300 pM, or 400 pM. The cells were cultured for 48 hours. Separately, abacavir was added to MT2 cells at the concentrations as described above, and VP16 (generic name: etoposide) was further added to each of the samples at a concentration of 0 nM, 100 nM, 250 nM, or 500 nM, followed by 48 hours culture. Separately, abacavir was added to MT2 cells at the concentrations as described above, and ADR (generic name: doxorubicin) was further added at a concentration of 0 nM, 10 nM, 25 nM, or 50 nM, followed by 48 hours culture. MTS assay was performed using a reagent for cellular proliferation test, Aqueous One Solution Cell Proliferation (trade name, manufactured by Promega), in the same manner as in Example 1.
The graphs (A), (B), and (c) show the results of combinations of abacavir (ABC in the graph) and CPT-11, abacavir and VP16, and abacavir and ADR, respectively. In the graphs, the vertical axis indicates the proliferation rate calculated from the cell number when the cell number at the administration of the agents was regarded as 1.

[2] = system: ATL cell line, ED40515 (−); assay: PARP inhibitor combination, cellular proliferation (MTS), ED40515 (−); type: cell-based; conditions: olaparib 1-1000 μM with abacavir 10, 50 or 100 μM, 48 hours
Protocol: (§1) To an ATL cell line, ED40515 (−), or a non-ATL cell line, Jurkat, abacavir was added at a concentration of 0 μM (DMSO, was added instead of abacavir), 10 μM, 50 μM or 100 μM, and further a PARP inhibitor, olaparib, was added at a concentration of 0 μM (DMSO was added instead of olaparib), 1 μM, 10 μM, 100 μM or 1000 μM. The cells were cultured for 48 hours. MTS assay was performed using a reagent for cellular proliferation test, Aqueous One Solution Cell Proliferation (trade name, manufactured by Promega), in the same manner as in Example 1. The cellular proliferation was represented by a ratio relative to that of the control (solvent control) on Day 0 that was regarded as 1.

[3] = system: non-ATL cell line, Jurkat; assay: PARP inhibitor combination, cellular proliferation (MTS), Jurkat; type: cell-based, human; conditions: olaparib 1-1000 μM, 48 hours
Protocol: as §1

[4] = system: ATL cell line, ED40515 (−); assay: Chromosome double-strand break (Giemsa chromosome specimens), ED40515 (−); type: cell-based; conditions: 48 hours, abacavir 10-100 μM, zidovudine 10 or 100 μM
Protocol: Abacavir was added to an ATL cell line, ED40515 (−), at a concentration of 0 μM (DMSO was added instead of abacavir), 10 μM, 25 μM, 50 μM, 75 μM or 100 μM. After the 48 hours culture, the cells were fixed by Carnoy and stained with Giemsa to prepare chromosome specimens in accordance with conventional methods. Similarly, zidovudine was added to ED40515 (−) at a concentration of 10 μM or 100 μM, and abacavir was added to a non-ATL cell line, Jurkat, at a concentration of 100 μM, and chromosome specimens were prepared. Chromosome images (100 or more images per group) were observed by an optical microscope. The cells were determined as being positive for double-strand break (DSB) when at least one chromosome break was found.

[5] = system: ATL cells; conditions: in vitro; Non Patent Literature 4; cited from earlier work

COc1cccc2c1C(=O)c1c(O)c3c(c(O)c1C2=O)C[C@@](O)(C(=O)CO)C[C@@H]3O[C@H]1C[C@H](N)[C@H](O)[C@H](C)O1 [ADR, doxorubicin]
cellular proliferation (proliferation rate) in combination with abacavir [1]: significantly suppressed cellular proliferation

CCc1c2c(nc3ccc(OC(=O)N4CCC(N5CCCCC5)CC4)cc13)-c1cc3c(c(=O)n1C2)COC(=O)[C@]3(O)CC [CPT-11, irinotecan]
cellular proliferation (proliferation rate) in combination with abacavir [1]: significantly suppressed cellular proliferation

COc1cc([C@@H]2c3cc4c(cc3[C@@H](O[C@@H]3O[C@@H]5CO[C@@H](C)O[C@H]5[C@H](O)[C@H]3O)[C@H]3COC(=O)[C@H]23)OCO4)cc(OC)c1O [VP16, etoposide]
cellular proliferation (proliferation rate) in combination with abacavir [1]: significantly suppressed cellular proliferation

O=C(c1cc(Cc2n[nH]c(=O)c3ccccc23)ccc1F)N1CCN(C(=O)C2CC2)CC1 [olaparib]
effect of PARP inhibitor on suppression of cellular proliferation by abacavir [2]: enhanced the suppressive effect of abacavir
cellular proliferation [3]: did not affect cellular proliferation

Cc1cn([C@H]2C[C@H](N=[N+]=[N-])[C@@H](CO)O2)c(=O)[nH]c1=O [zidovudine]
ratio of double-strand break-positive cells [4]: did not induce double-strand break
anti-cancer effect against ATL cells [5]: no anti-cancer effect
